# Patent US9433605B2, “Method for promoting synthesis of tissue collagen” (Kyowa Hakko Bio Co., Ltd., priority 2006, dated 2016)
# Legend:
# [1] = Concentration of free hydroxyproline in serum and skin after oral intake; assay type: in vivo; details: HOS:HR-1 mouse, 500 mg/kg oral, 0.5-24 hours, FIGS. 1 and 2
# Description: HOS:HR-1 mouse (seven-week-old female; purchased from Japan SLC, Inc.) was used in the test.
# Trans-4-hydroxy-L-proline (Kyowa Hakko Kogyo Co., Ltd.; hereinafter referred to as hydroxyproline) was dissolved in purified water at a concentration of 50 mg/ml, and the resulting solution was orally administered in an amount of 500 mg/kg. After 0.5, 1, 2, 4, 6 and 24 hours, blood was collected from the abdominal vena cava of the mouse under diethyl ether inhalation anesthesia to obtain a serum. After cervical dislocation, dorsal skin was collected, subjected to freeze-disruption and then to extraction with water to obtain a skin extract.
# The amount of hydroxyproline in the sera and the skin extract was analyzed by high performance liquid chromatography using ODS column ([…]×15 cm, GL Sciences Inc.) after protein was removed with an equal amount of 2% (w/v) sulfosalicylic acid and the second amino group was labeled with NBD-Cl (4-chloro-7-nitro-2,1,3-benzoxadiazole, Tokyo Chemical Industry Co., Ltd.).
# [2] = tested on: synthesis of collagen in the skin; assay: Subcutaneous sponge implant: amount of hydroxyproline as index of collagen-synthesizing and tissue-restoring ability; assay type: in vivo; details: rats, sponge pieces, Student's t-test p < 0.05
# Description: F344/DuCrlCrlj rats (12 heads, 29-week-old male; purchased from Charles River Laboratories Japan, Inc.) were divided into 2 groups each consisting of 6 rats.
# The rats of Group 1 and Group 2 were fed with the feed of Example 5 and the control feed of Comparative Example 1, respectively, ad libitum for 7 days. The abdominal area of each rat was shaved with clippers under anesthesia by intraperitoneal administration of pentobarbital, and cut sponge pieces (ca. 150 mg, 2 mm thick, ca. 38 mm×12 mm; Ivalon, Inc.) were inserted into two spots under the skin, followed by suturing. After further feeding for 7 days, the sponge pieces were taken out.
# The sponge pieces were subjected to reaction using 6N hydrochloric acid (20 ml/piece) at 110° C. for 18 hours to decompose them with acid and heat. The products obtained by decomposition with acid and heat were diluted 10 times with 1M borate buffer (pH 10.6), and the amount of hydroxyproline was measured in the same manner as in Test Example 1 and was regarded as an index of the collagen-synthesizing ability and tissue-restoring ability of a rat.
# The values were shown in terms of average value ±standard deviation and a test of statistical significance was performed by Student's t-test.
# [3] = tested on: skin wrinkles or sagging; assay: Parallel-group double-blind test, 10-level self-rating of facial skin condition; assay type: in vivo, human; details: oral ingestion, 4 weeks, conclusion from Table 2
# Description: Females aged 47 to 65 years (21 subjects) who chronically suffer from dry skin and rough skin were divided into two groups. After a 2-week observation period, Group 1 (9 subjects) and Group 2 (12 subjects) ingested hard capsules of Example 6 and hard capsules of Comparative Example 2, respectively, for 4 weeks (2 capsules each morning and evening). The test was carried out by parallel-group double-blind test. At the start and the end of the period of ingesting hard capsules, the following questions 1 to 3 were addressed to the subjects (answer “1”: level 1, answer “10”: level 10) and the skin conditions of the subjects were evaluated by a 10-level rating system. • Question 1: Evaluate the level of wrinkles on your face.
# 1: Wrinkles all over the surface
# 10: No wrinkles • Question 2: Evaluate the elasticity of the skin of your face.
# 10: Extreme elasticity • Question 3: Evaluate the firmness of the skin of your face.
# The improvement rate (%) was calculated according to Equation 1. Improvement rate (%)=average value of levels after intake/average value of levels before intake×100 [Equation 1]
structure (smiles),measurement,setting,value
"O=C(O)[C@@H]1C[C@@H](O)CN1 [hydroxyproline, Trans-4-hydroxy-L-proline]",movement of orally ingested hydroxyproline into blood and skin (free hydroxyproline in serum and skin extract),[1],quickly moves into blood and skin
same,amount of hydroxyproline derived from heat-decomposed collagen (versus control feed),[2],significantly increased
same,wrinkles and sagging of the face,[3],improved
